We go through 2 compounds from patent US20250101356A1, “CONTAINER FOR PRODUCING TENSION-APPLIED THREE-DIMENSIONAL ARTIFICIAL SKIN AND PRODUCTION METHOD THEREOF” (RIKEN, priority 2022, published 2025).

What all share (assay type): cell-based, human
Experiment [1] relates to hyaluronan synthase (HAS3) gene expression. The experiment can be described thus: HAS3 gene expression in tension-applied three-dimensional artificial skin (real-time PCR). The note with it: artificial skin of the present invention; 10 μM ATRA solution on gauze on epidermis for 1 hour, then 5 hours culture (6 hours after addition). The protocol:
The artificial skin was such that, on the 6th day of culture, this was replaced with a medium for assay use (Dulbecco's Modified Eagle's Medium containing 1 μM hydrocortisone, 5 μg/mL insulin, and 10% fetal bovine serum). On the 8th day of culture, gauze that had been impregnated with 0.2% HPC solution or 10 μM ATRA solution was placed on the surface of the epidermis, and this was cultured for 1 hour in a 5% CO2 incubator at 37° C. After 1 hour, the gauze was removed, and this was further cultured for 5 hours in a 5% CO2 incubator at 37° C. Following culture of the artificial skin for 6 hours, the artificial skin was removed from the container in such fashion as to not cause the epidermal tissue to be delaminated therefrom, and a razor was used to cut this in half. After using […] from an RNeasy Plus Mini Kit (manufactured by Qiagen) to dissolve tissue by pulverizing with beads, phenol chloroform was used to remove protein therefrom, following which column purification was carried out as directed by the RNeasy Plus Mini Kit protocol to obtain total RNA.
SuperScript VILO Master Mix (manufactured by Invitrogen) was used as directed by the attached manual to carry out synthesis of cDNA from the purified total RNA. […]
(Quantitative PCR measures a nucleic acid by following its amplification.)

The test system of experiment [2] is collagen 1A1 (COL1A1) gene expression. The experiment can be described thus: Collagen 1A1 gene expression in tension-applied three-dimensional artificial skin (real-time PCR). The note with it: artificial skins prepared using means of the present invention; 10 ng/mL TGF-β in assay medium, 48 hours. On the procedure: (§1) The artificial skin was such that, on the 6th day of culture, this was replaced with a medium for assay use (Dulbecco's Modified Eagle's Medium containing 1 μM hydrocortisone, 5 μg/mL insulin, and 10% fetal bovine serum). […] After using RNT solution from an RNeasy Plus Mini Kit (manufactured by Qiagen) to dissolve tissue by pulverizing with beads, phenol chloroform was used to remove protein therefrom, following which column purification was carried out as directed by the RNeasy Plus Mini Kit protocol to obtain total RNA.
(§2) SuperScript VILO Master Mix (manufactured by Invitrogen) was used as directed by the attached manual to carry out synthesis of cDNA from the purified total RNA. The synthesized cDNA was mixed with SYBR Premix Ex Taq (manufactured by Takara) and primer mix (a mixture of forward and reverse primers), 12.5 μL of reaction solution was prepared in each well of a 96-well plate for PCR use, and a QuantStudio 12K Flex (Applied Biosystems) was used to carry out real-time PCR. The real-time PCR reaction was such that 40 cycles comprising 95° C. for 30 seconds for initial denaturation, and 95° C. for 5 seconds and 60° C. for 31 seconds for the PCR reaction, were carried out. […]

For experiment [3], the system named is elastin (ELN) gene expression. Kind of experiment: Elastin gene expression in tension-applied three-dimensional artificial skin (real-time PCR). To be noted: artificial skins prepared using means of the present invention; 10 ng/mL TGF-β in assay medium, 48 hours. On the procedure:
as §1, §2

`CC1=C(/C=C/C(C)=C/C=C/C(C)=C/C(=O)O)C(C)(C)CCC1` [ATRA]: the “increase of HAS3 gene expression as compared with the situation when unstimulated” value in experiment [1] is recorded as ≥ 3 ×.

As to TGF-β, in experiment [2], the “increase of COL1A1 gene expression as compared with the situation when unstimulated” value is given as ≥ 1.5 ×. Further, the “increase of elastin (ELN) gene expression as compared with the situation when unstimulated” value in experiment [3] was ≥ 3 ×.
